The text below walks through data of PMC6028883, “A highly glucose-tolerant GH1 β-glucosidase with greater conversion rate of soybean isoflavones in monogastric animals” (Journal of Industrial Microbiology & Biotechnology, 2018).

The subject of data set [1] is O=[N+]([O-])c1ccc(O[C@@H]2O[C@H](CO)[C@@H](O)[C@H](O)[C@H]2O)cc1. The data set can be described thus: initial rate, Lineweaver-Burk plot. It counts as biochemical, Alicyclobacillus sp. A4. Conditions: pH 6.5, 55 °C, 5 min, 0.2-1.5 mM pNPG.
In data set [2] the target is T1, Bgl3A (Evansstolkia leycettana, UniProt A0A1B0VFN7).
T1 construct: laboratory stock enzyme
T1 sequence (A0A1B0VFN7 entry or part of it): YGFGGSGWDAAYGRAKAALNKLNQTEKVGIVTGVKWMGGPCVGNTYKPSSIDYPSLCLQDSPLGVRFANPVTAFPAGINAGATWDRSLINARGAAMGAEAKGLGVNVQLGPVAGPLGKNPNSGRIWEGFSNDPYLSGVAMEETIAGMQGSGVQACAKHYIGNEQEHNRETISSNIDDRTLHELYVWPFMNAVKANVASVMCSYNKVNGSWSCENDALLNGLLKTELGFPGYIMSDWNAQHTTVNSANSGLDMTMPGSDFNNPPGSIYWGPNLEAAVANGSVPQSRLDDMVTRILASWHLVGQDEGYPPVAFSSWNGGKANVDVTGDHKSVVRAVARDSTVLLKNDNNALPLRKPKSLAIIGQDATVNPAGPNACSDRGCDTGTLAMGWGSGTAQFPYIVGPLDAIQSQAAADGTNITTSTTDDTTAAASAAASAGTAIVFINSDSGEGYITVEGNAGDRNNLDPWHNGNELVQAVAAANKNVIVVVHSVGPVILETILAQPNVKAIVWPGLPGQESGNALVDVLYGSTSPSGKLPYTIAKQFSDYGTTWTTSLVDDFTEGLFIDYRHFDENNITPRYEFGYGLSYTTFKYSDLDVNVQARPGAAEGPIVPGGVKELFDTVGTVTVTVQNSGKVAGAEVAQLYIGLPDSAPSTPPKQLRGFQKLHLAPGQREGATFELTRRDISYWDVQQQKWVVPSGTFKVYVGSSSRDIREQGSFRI
The data set is described as follows: inhibition of daidzin hydrolysis, HPLC. Particulars: 0.5 mM daidzin, glucose printed as 10 mM but 80 mM stock diluted fourfold; pH 6.5, 37 °C, 5 min. It counts as biochemical.

In data set [3] the target is AsBG1 (Alicyclobacillus sp. A4, UniProt A0A220YLM5). The data set is described as follows: inhibition of cellobiose hydrolysis, ion exchange chromatography. It counts as biochemical. Conditions: read-out: % inhibition at 10 mM.
AsBG1, sequence (A0A220YLM5 1-454 limits assumed): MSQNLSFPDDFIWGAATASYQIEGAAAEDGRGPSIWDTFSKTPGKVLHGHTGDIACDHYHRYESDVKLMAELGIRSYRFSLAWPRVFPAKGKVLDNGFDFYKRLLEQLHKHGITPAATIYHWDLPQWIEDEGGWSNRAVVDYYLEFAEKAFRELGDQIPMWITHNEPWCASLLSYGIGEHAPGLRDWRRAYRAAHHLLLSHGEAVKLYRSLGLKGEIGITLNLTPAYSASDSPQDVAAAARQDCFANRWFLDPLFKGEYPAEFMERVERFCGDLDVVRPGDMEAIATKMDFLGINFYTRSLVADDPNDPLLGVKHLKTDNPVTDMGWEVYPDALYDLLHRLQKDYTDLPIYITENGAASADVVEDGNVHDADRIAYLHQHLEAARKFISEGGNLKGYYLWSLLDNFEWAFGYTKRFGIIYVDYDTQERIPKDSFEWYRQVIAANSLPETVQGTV

On to AsBG1 (Alicyclobacillus sp. A4), for which the Km (commonly the concentration of substrate that gives half-maximal velocity) in data set [1] turned out to be 0.4 mM.
In the case of `OC[C@H]1OC(O)[C@H](O)[C@@H](O)[C@@H]1O` (stereo partly drawn) [glucose], the “inhibition of daidzin hydrolysis, HPLC” value in data set [2] is on record as “the conversion efficiency of daidzin by Bgl3A was seriously impeded by glucose”. For the same compound, in data set [3], the inhibition (commonly the percentage by which the read-out fell short of the control) at 10000 µM was ~60%.
